According to patent publication US8952024B2, “Herbicidal pyrimidone derivatives” (E I du Pont de Nemours and Company, priority 2009, dated 2015):

System: galium (catchweed bedstraw, Galium aparine)
Assay: Test B pre-/postemergence plant response
Format: in vivo
Settings: 250 g ai/ha, Preemergence, 0 to 100 scale
Method in brief: (§1)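 Greenhouse herbicide screen. Pre- and postemergence (1- to 4-leaf) spray of compound in solvent/surfactant mixture; loam–sand soil for pre, peat/vermiculite medium for post. Visual control rating 0–100 at 13 to 15 days after treatment.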

| Compound | Plant response rating, Galium |
| --- | --- |
| CCCc1ncc(C(=O)C2=C(O)CCCC2=O)c(=O)n1-c1ccccc1C [Compound 73] | 85 |

Same assay, conditions: Preemergence, 31 g ai/ha; scale 0 to 100 (0 no effect, 100 complete control)

| Compound | Plant response rating, Galium |
| --- | --- |
| CCCc1ncc(C(=O)C2=C(O)CCCC2=O)c(=O)n1CC1CCCO1 (centres unmarked) [Compound 74] | 20 |
| CCCn1c(-c2cccs2)ncc(C(=O)C2=C(O)CCCC2=O)c1=O [Compound 77] | 0 |
| COCCn1c(-c2cc(F)cc(F)c2)ncc(C(=O)C2=C(O)CCCC2=O)c1=O [Compound 119] | 65 |
| COCCCn1c(-c2cc(F)cc(F)c2)ncc(C(=O)C2=C(O)CCCC2=O)c1=O [Compound 120] | 80 |
| COc1ccc(-n2c(-c3ccccc3)ncc(C(=O)C3=C(O)CCCC3=O)c2=O)cc1OC [Compound 218] | 60 |

Same assay, conditions: Preemergence, 62 g ai/ha; scale 0 to 100 (0 no effect, 100 complete control)

| Compound | Plant response rating, Galium |
| --- | --- |
| CCCc1ncc(C(=O)C2=C(O)CCCC2=O)c(=O)n1-c1ccccc1C [Compound 73] | 30 |
| CCCc1ncc(C(=O)C2=C(O)CCCC2=O)c(=O)n1CC1CCCO1 (centres unmarked) [Compound 74] | 30 |
| CCCn1c(-c2cccs2)ncc(C(=O)C2=C(O)CCCC2=O)c1=O [Compound 77] | 20 |
| COCCn1c(-c2cc(F)cc(F)c2)ncc(C(=O)C2=C(O)CCCC2=O)c1=O [Compound 119] | 85 |
| COCCCn1c(-c2cc(F)cc(F)c2)ncc(C(=O)C2=C(O)CCCC2=O)c1=O [Compound 120] | 90 |
| COc1ccc(-n2c(-c3ccccc3)ncc(C(=O)C3=C(O)CCCC3=O)c2=O)cc1OC [Compound 218] | 80 |

Same assay, conditions: Preemergence, 125 g ai/ha; scale 0 to 100, 0 no effect, 100 complete control

| Compound | Plant response rating, Galium |
| --- | --- |
| CCCc1ncc(C(=O)C2=C(O)CCCC2=O)c(=O)n1-c1ccccc1C [Compound 73] | 80 |
| CCCc1ncc(C(=O)C2=C(O)CCCC2=O)c(=O)n1CC1CCCO1 (centres unmarked) [Compound 74] | 40 |
| CCCn1c(-c2cccs2)ncc(C(=O)C2=C(O)CCCC2=O)c1=O [Compound 77] | 85 |
| COCCn1c(-c2cc(F)cc(F)c2)ncc(C(=O)C2=C(O)CCCC2=O)c1=O [Compound 119] | 90 |
| COCCCn1c(-c2cc(F)cc(F)c2)ncc(C(=O)C2=C(O)CCCC2=O)c1=O [Compound 120] | 95 |
| COc1ccc(-n2c(-c3ccccc3)ncc(C(=O)C3=C(O)CCCC3=O)c2=O)cc1OC [Compound 218] | 95 |

Same assay, conditions: Preemergence, 250 g ai/ha; 0 to 100 scale

| Compound | Galium plant response rating |
| --- | --- |
| CCCc1ncc(C(=O)C2=C(O)CCCC2=O)c(=O)n1CC1CCCO1 (centres unmarked) [Compound 74] | 98 |
| CCCn1c(-c2cccs2)ncc(C(=O)C2=C(O)CCCC2=O)c1=O [Compound 77] | 90 |
| COCCn1c(-c2cc(F)cc(F)c2)ncc(C(=O)C2=C(O)CCCC2=O)c1=O [Compound 119] | 100 |
| COCCCn1c(-c2cc(F)cc(F)c2)ncc(C(=O)C2=C(O)CCCC2=O)c1=O [Compound 120] | 98 |
| COc1ccc(-n2c(-c3ccccc3)ncc(C(=O)C3=C(O)CCCC3=O)c2=O)cc1OC [Compound 218] | 100 |

System: nightshade (eastern black nightshade, Solanum ptycanthum)
Assay: Test B pre-/postemergence plant response
Format: in vivo
Settings: Preemergence, 31 g ai/ha; scale 0 to 100 (0 no effect, 100 complete control)
Method in brief: as §1

| Compound | Plant response rating, Nightshade |
| --- | --- |
| CCCc1ncc(C(=O)C2=C(O)CCCC2=O)c(=O)n1-c1ccccc1C [Compound 73] | 75 |
| CCCc1ncc(C(=O)C2=C(O)CCCC2=O)c(=O)n1CC1CCCO1 (centres unmarked) [Compound 74] | 85 |
| CCCn1c(-c2cccs2)ncc(C(=O)C2=C(O)CCCC2=O)c1=O [Compound 77] | 98 |
| COCCn1c(-c2cc(F)cc(F)c2)ncc(C(=O)C2=C(O)CCCC2=O)c1=O [Compound 119] | 90 |
| COCCCn1c(-c2cc(F)cc(F)c2)ncc(C(=O)C2=C(O)CCCC2=O)c1=O [Compound 120] | 90 |
| COc1ccc(-n2c(-c3ccccc3)ncc(C(=O)C3=C(O)CCCC3=O)c2=O)cc1OC [Compound 218] | 98 |

Same assay, conditions: Preemergence, 62 g ai/ha; scale 0 to 100 (0 no effect, 100 complete control)

| Compound | Plant response rating, Nightshade |
| --- | --- |
| CCCc1ncc(C(=O)C2=C(O)CCCC2=O)c(=O)n1-c1ccccc1C [Compound 73] | 95 |
| CCCc1ncc(C(=O)C2=C(O)CCCC2=O)c(=O)n1CC1CCCO1 (centres unmarked) [Compound 74] | 98 |
| CCCn1c(-c2cccs2)ncc(C(=O)C2=C(O)CCCC2=O)c1=O [Compound 77] | 98 |
| COCCn1c(-c2cc(F)cc(F)c2)ncc(C(=O)C2=C(O)CCCC2=O)c1=O [Compound 119] | 98 |
| COCCCn1c(-c2cc(F)cc(F)c2)ncc(C(=O)C2=C(O)CCCC2=O)c1=O [Compound 120] | 95 |
| COc1ccc(-n2c(-c3ccccc3)ncc(C(=O)C3=C(O)CCCC3=O)c2=O)cc1OC [Compound 218] | 98 |

Same assay, conditions: Preemergence, 125 g ai/ha; scale 0 to 100, 0 no effect, 100 complete control

| Compound | Plant response rating, Nightshade |
| --- | --- |
| CCCc1ncc(C(=O)C2=C(O)CCCC2=O)c(=O)n1-c1ccccc1C [Compound 73] | 98 |
| CCCc1ncc(C(=O)C2=C(O)CCCC2=O)c(=O)n1CC1CCCO1 (centres unmarked) [Compound 74] | 98 |
| CCCn1c(-c2cccs2)ncc(C(=O)C2=C(O)CCCC2=O)c1=O [Compound 77] | 98 |
| COCCn1c(-c2cc(F)cc(F)c2)ncc(C(=O)C2=C(O)CCCC2=O)c1=O [Compound 119] | 98 |
| COCCCn1c(-c2cc(F)cc(F)c2)ncc(C(=O)C2=C(O)CCCC2=O)c1=O [Compound 120] | 95 |
| COc1ccc(-n2c(-c3ccccc3)ncc(C(=O)C3=C(O)CCCC3=O)c2=O)cc1OC [Compound 218] | 100 |

Same assay, conditions: Preemergence, 250 g ai/ha; 0 to 100 scale

| Compound | Nightshade plant response rating |
| --- | --- |
| CCCc1ncc(C(=O)C2=C(O)CCCC2=O)c(=O)n1CC1CCCO1 (centres unmarked) [Compound 74] | 100 |
| CCCn1c(-c2cccs2)ncc(C(=O)C2=C(O)CCCC2=O)c1=O [Compound 77] | 100 |
| COCCn1c(-c2cc(F)cc(F)c2)ncc(C(=O)C2=C(O)CCCC2=O)c1=O [Compound 119] | 100 |
| COCCCn1c(-c2cc(F)cc(F)c2)ncc(C(=O)C2=C(O)CCCC2=O)c1=O [Compound 120] | 98 |
| COc1ccc(-n2c(-c3ccccc3)ncc(C(=O)C3=C(O)CCCC3=O)c2=O)cc1OC [Compound 218] | 100 |

System: sunflower (common oilseed sunflower, Helianthus annuus)
Assay: Test B pre-/postemergence plant response
Format: in vivo
Settings: Preemergence, 31 g ai/ha; scale 0 to 100 (0 no effect, 100 complete control)
Method in brief: as §1

| Compound | Plant response rating, Sunflower |
| --- | --- |
| CCCc1ncc(C(=O)C2=C(O)CCCC2=O)c(=O)n1-c1ccccc1C [Compound 73] | 0 |
| CCCc1ncc(C(=O)C2=C(O)CCCC2=O)c(=O)n1CC1CCCO1 (centres unmarked) [Compound 74] | 0 |
| CCCn1c(-c2cccs2)ncc(C(=O)C2=C(O)CCCC2=O)c1=O [Compound 77] | 60 |
| COCCn1c(-c2cc(F)cc(F)c2)ncc(C(=O)C2=C(O)CCCC2=O)c1=O [Compound 119] | 40 |
| COCCCn1c(-c2cc(F)cc(F)c2)ncc(C(=O)C2=C(O)CCCC2=O)c1=O [Compound 120] | 45 |
| COc1ccc(-n2c(-c3ccccc3)ncc(C(=O)C3=C(O)CCCC3=O)c2=O)cc1OC [Compound 218] | 75 |

Same assay, conditions: Preemergence, 62 g ai/ha; scale 0 to 100 (0 no effect, 100 complete control)

| Compound | Plant response rating, Sunflower |
| --- | --- |
| CCCc1ncc(C(=O)C2=C(O)CCCC2=O)c(=O)n1-c1ccccc1C [Compound 73] | 20 |
| CCCc1ncc(C(=O)C2=C(O)CCCC2=O)c(=O)n1CC1CCCO1 (centres unmarked) [Compound 74] | 55 |
| CCCn1c(-c2cccs2)ncc(C(=O)C2=C(O)CCCC2=O)c1=O [Compound 77] | 75 |
| COCCn1c(-c2cc(F)cc(F)c2)ncc(C(=O)C2=C(O)CCCC2=O)c1=O [Compound 119] | 60 |
| COc1ccc(-n2c(-c3ccccc3)ncc(C(=O)C3=C(O)CCCC3=O)c2=O)cc1OC [Compound 218] | 80 |

Same assay, conditions: Preemergence, 125 g ai/ha; scale 0 to 100, 0 no effect, 100 complete control

| Compound | Plant response rating, Sunflower |
| --- | --- |
| CCCc1ncc(C(=O)C2=C(O)CCCC2=O)c(=O)n1-c1ccccc1C [Compound 73] | 70 |
| CCCc1ncc(C(=O)C2=C(O)CCCC2=O)c(=O)n1CC1CCCO1 (centres unmarked) [Compound 74] | 70 |
| CCCn1c(-c2cccs2)ncc(C(=O)C2=C(O)CCCC2=O)c1=O [Compound 77] | 75 |
| COCCn1c(-c2cc(F)cc(F)c2)ncc(C(=O)C2=C(O)CCCC2=O)c1=O [Compound 119] | 70 |
| COCCCn1c(-c2cc(F)cc(F)c2)ncc(C(=O)C2=C(O)CCCC2=O)c1=O [Compound 120] | 85 |
| COc1ccc(-n2c(-c3ccccc3)ncc(C(=O)C3=C(O)CCCC3=O)c2=O)cc1OC [Compound 218] | 90 |

Same assay, conditions: Preemergence, 250 g ai/ha; 0 to 100 scale

| Compound | Sunflower plant response rating |
| --- | --- |
| CCCc1ncc(C(=O)C2=C(O)CCCC2=O)c(=O)n1CC1CCCO1 (centres unmarked) [Compound 74] | 85 |
| CCCn1c(-c2cccs2)ncc(C(=O)C2=C(O)CCCC2=O)c1=O [Compound 77] | 85 |
| COCCn1c(-c2cc(F)cc(F)c2)ncc(C(=O)C2=C(O)CCCC2=O)c1=O [Compound 119] | 85 |
| COCCCn1c(-c2cc(F)cc(F)c2)ncc(C(=O)C2=C(O)CCCC2=O)c1=O [Compound 120] | 95 |
| COc1ccc(-n2c(-c3ccccc3)ncc(C(=O)C3=C(O)CCCC3=O)c2=O)cc1OC [Compound 218] | 95 |
